Here are results for 3 compounds from BindingDB's records for PubMed 3252029 (University of Illinois At Chicago, 1988).

Each structure is given as a SMILES string. Several values for one entry are separate records, joined by “and”; a condition that tells them apart may be missing. Equal values may be shown once.

In the assay the target is T1, Adenosine receptor A1 (Gallus gallus, UniProt P49892).
T1 sequence (P49892 whole entry): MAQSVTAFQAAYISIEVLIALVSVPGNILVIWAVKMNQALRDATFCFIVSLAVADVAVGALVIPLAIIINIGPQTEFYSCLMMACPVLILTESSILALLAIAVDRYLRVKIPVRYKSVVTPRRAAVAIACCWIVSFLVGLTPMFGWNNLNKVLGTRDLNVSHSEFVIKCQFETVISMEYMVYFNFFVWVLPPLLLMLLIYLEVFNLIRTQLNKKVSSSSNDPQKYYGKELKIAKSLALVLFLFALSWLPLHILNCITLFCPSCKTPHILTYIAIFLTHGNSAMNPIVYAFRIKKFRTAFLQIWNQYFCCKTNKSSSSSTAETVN
In general, Ki refers to a measure of affinity in units of concentration, obtained from inhibition or displacement. Consider `CCNC(=O)[C@H]1O[C@@H](n2cnc3c(N)ncnc32)[C@H](O)[C@@H]1O`, for which the Ki was 14.4 nM and 16.9 nM. With `CCn1c(=O)c2[nH]c(-c3ccccc3)nc2n(CC)c1=O` [1,3-Diethyl-8-phenyl-3,7-dihydro-purine-2,6-dione], the inhibitory constant (Ki) was 2070 nM and 790 nM. In the case of `OC[C@H]1O[C@@H](n2cnc3c(NC4CCCCC4)ncnc32)[C@H](O)[C@@H]1O` [CHA] it was 2.5 nM.
